Measurements reported in patent publication US9156801B2, “2-substituted oleanolic acid derivative, method preparing for same, and application thereof” (HANGZHOU BENSHENG PHARMACEUTICAL CO., LTD., priority 2011, dated 2015).
Values after ≈ are worked out from the molar mass of the structure shown.

Experiments:
NB4 cell line = test: leukemia cell growth inhibition, MTT; format: cell-based; details: Homo sapiens, NB-4; for inhibition at 16 µg/mL: NB4, 16 μg/mL compound, 72 h, read-out: IR (cell proliferation inhibition rate); for IC50: NB4, 72 h
Method in brief: (§1)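 Proliferation inhibition was read by MTT after 72 h of compound exposure (37 °C, 5% CO2), untreated wells defining 0%. Each well held 6000 cells in 1640 medium plus 10% fetal bovine serum, with test compounds at varied concentrations.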

Kasumi-1 cell line = test: leukemia cell growth inhibition, MTT; format: cell-based; details: Homo sapiens; for inhibition at 16 µg/mL: Kasumi-1, 16 μg/mL compound, 72 h, read-out: IR (cell proliferation inhibition rate); for IC50: Kasumi-1, 72 h
Method in brief: as §1

K562/adr cell line = test: leukemia cell growth inhibition, MTT; format: cell-based; details: Homo sapiens, 72 h; for IC50: K562/Adr; for inhibition at 16 µg/mL: K562/adr, 16 μg/mL compound, read-out: IR (cell proliferation inhibition rate)
Method in brief: as §1

Jurkat cell line = test: leukemia cell growth inhibition, MTT; format: cell-based; details: Homo sapiens, 72 h; for inhibition at 16 µg/mL: 16 μg/mL compound, read-out: IR (cell proliferation inhibition rate)
Method in brief: as §1

H9 cell line = test: leukemia cell growth inhibition, MTT; format: cell-based; details: Homo sapiens; for IC50: H9, 72 h; for inhibition at 16 µg/mL: H9, 16 μg/mL compound, 72 h, read-out: IR (cell proliferation inhibition rate)
Method in brief: as §1

Hep G2 cell line = test: solid tumor cell growth inhibition, MTT; format: cell-based, human; details: Homo sapiens; for inhibition at 16 µg/mL: HepG2, 72 h, Hep G2, 16 μg/mL compound, 72 h, read-out: IR (cell proliferation inhibition rate); for IC50: HepG2, Hep G2, 72 h
Method in brief: (§2)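 Proliferation inhibition is calculated relative to untreated cells taken as 0%, using MTT to estimate living cells. Cultures of 4000 cells per well in DMEM high glucose/10% FBS receive compound 24 h after seeding and are then incubated 72 h at 37° C, 5% CO2.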

RPMI8226 cell line = test: multiple myeloma cell growth inhibition, MTT; format: cell-based; details: Homo sapiens, RPMI-8226; for inhibition at 16 µg/mL: RPMI8226, 16 μg/mL compound, 72 h, read-out: IR (cell proliferation inhibition rate); for IC50: RPMI8226, 72 h
Method in brief: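 Viability was measured by MTT after a 72 h compound exposure (37° C, 5% CO2) of RPMI8226 myeloma cells seeded at 6000 per well in 1640 medium with 10% fetal bovine serum. Growth inhibition was expressed relative to untreated cells, taken as 0%.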

Hep-2 cell line = test: solid tumor cell growth inhibition, MTT; format: cell-based; details: Homo sapiens; for IC50: HEp-2, 72 h; for inhibition at 16 µg/mL: Hep-2, 16 μg/mL compound, 72 h, read-out: IR (cell proliferation inhibition rate)
Method in brief: as §2

Hela cell line = test: solid tumor cell growth inhibition, MTT; format: cell-based; details: Homo sapiens, 72 h; for IC50: HeLa; for inhibition at 16 µg/mL: Hela, 16 μg/mL compound, read-out: IR (cell proliferation inhibition rate)
Method in brief: as §2

PANC-1 cell line = test: solid tumor cell growth inhibition, MTT; format: cell-based; details: Homo sapiens; for IC50: PANC-1, 72 h; for inhibition at 16 µg/mL: PANC-1, 16 μg/mL compound, 72 h, read-out: IR (cell proliferation inhibition rate)
Method in brief: as §2

CaES-17 cell line = test: solid tumor cell growth inhibition, MTT; format: cell-based; details: Homo sapiens, CaEs17; for inhibition at 16 µg/mL: CaES-17, 16 μg/mL compound, 72 h, read-out: IR (cell proliferation inhibition rate); for IC50: CaES-17, 72 h
Method in brief: as §2

PC-3 cell line = test: solid tumor cell growth inhibition, MTT; format: cell-based; details: Homo sapiens; for IC50: PC-3, 72 h; for inhibition at 16 µg/mL: PC-3, 16 μg/mL compound, 72 h, read-out: IR (cell proliferation inhibition rate)
Method in brief: as §2

A549 cell line = test: solid tumor cell growth inhibition, MTT; format: cell-based; details: Homo sapiens; for IC50: A549, 72 h; for inhibition at 16 µg/mL: A549, 16 μg/mL compound, 72 h, read-out: IR (cell proliferation inhibition rate)
Method in brief: as §2

Becap37 cell line = test: solid tumor cell growth inhibition, MTT; format: cell-based; details: Homo sapiens; for inhibition at 16 µg/mL: Becap37, 16 μg/mL compound, 72 h, read-out: IR (cell proliferation inhibition rate); for IC50: Becap37, 72 h
Method in brief: as §2

CNE cell line = test: solid tumor cell growth inhibition, MTT; format: cell-based; details: Homo sapiens, 72 h; for inhibition at 16 µg/mL: 16 μg/mL compound, read-out: IR (cell proliferation inhibition rate)
Method in brief: as §2

MGC 803 cell line = test: solid tumor cell growth inhibition, MTT; format: cell-based; details: Homo sapiens; for inhibition at 16 µg/mL: MGC 803, 16 μg/mL compound, 72 h, read-out: IR (cell proliferation inhibition rate); for IC50: MGC 803, 72 h
Method in brief: as §2

MG-63 cell line = test: solid tumor cell growth inhibition, MTT; format: cell-based; details: Homo sapiens; for IC50: MG-63, 72 h; for inhibition at 16 µg/mL: MG-63, 16 μg/mL compound, 72 h, read-out: IR (cell proliferation inhibition rate)
Method in brief: as §2

U87 MG cell line = test: solid tumor cell growth inhibition, MTT; format: cell-based; details: Homo sapiens, U-87 MG, 72 h; for inhibition at 16 µg/mL: 16 μg/mL compound, read-out: IR (cell proliferation inhibition rate)
Method in brief: as §2

RKO cell line = test: solid tumor cell growth inhibition, MTT; format: cell-based; details: Homo sapiens, 72 h; for inhibition at 16 µg/mL: 16 μg/mL compound, read-out: IR (cell proliferation inhibition rate)
Method in brief: as §2

SK-OV-3 cell line = test: solid tumor cell growth inhibition, MTT; format: cell-based; details: Homo sapiens; for IC50: SK-OV-3, 72 h; for inhibition at 16 µg/mL: SK-OV-3, 16 μg/mL compound, 72 h, read-out: IR (cell proliferation inhibition rate)
Method in brief: as §2

COC(=O)[C@]12CCC(C)(C)CC1C1=CCC3[C@@]4(C)CC(C(=O)NCCCN(C)C)C(=O)C(C)(C)C4CC[C@@]3(C)[C@]1(C)CC2 (some centres unmarked) [BS-OA-042]
inhibition at 16 µg/mL (NB4 cell line): 100%
IC50 (NB4 cell line): 2.63 µg/mL (≈ 4.41 µM)
inhibition at 16 µg/mL (Kasumi-1 cell line): 99.1%
IC50 (Kasumi-1 cell line): 4.1 µg/mL (≈ 6.87 µM)
IC50 (K562/adr cell line): 0.64 µg/mL (≈ 1.07 µM)
inhibition at 16 µg/mL (K562/adr cell line): 98.4%
inhibition at 16 µg/mL (Jurkat cell line): 99%
IC50 (Jurkat cell line): 2.43 µg/mL (≈ 4.07 µM)
IC50 (H9 cell line): 3.12 µg/mL (≈ 5.23 µM)
inhibition at 16 µg/mL (H9 cell line): 95.9%
inhibition at 16 µg/mL (Hep G2 cell line): > 96%
IC50 (Hep G2 cell line): 2.36 µg/mL (≈ 3.95 µM)
inhibition at 16 µg/mL (RPMI8226 cell line): 98.9%
IC50 (RPMI8226 cell line): 0.68 µg/mL (≈ 1.14 µM)
IC50 (Hep-2 cell line): 5.99 µg/mL (≈ 10 µM)
inhibition at 16 µg/mL (Hep-2 cell line): 95.2%
IC50 (Hela cell line): 3.47 µg/mL (≈ 5.81 µM)
inhibition at 16 µg/mL (Hela cell line): 98.9%
IC50 (PANC-1 cell line): 5.02 µg/mL (≈ 8.41 µM)
inhibition at 16 µg/mL (PANC-1 cell line): 99.4%
inhibition at 16 µg/mL (CaES-17 cell line): 98.1%
IC50 (CaES-17 cell line): 2.97 µg/mL (≈ 4.98 µM)
IC50 (PC-3 cell line): 4.78 µg/mL (≈ 8.01 µM)
inhibition at 16 µg/mL (PC-3 cell line): 100%
IC50 (A549 cell line): 2.06 µg/mL (≈ 3.45 µM)
inhibition at 16 µg/mL (A549 cell line): 96.9%
inhibition at 16 µg/mL (Becap37 cell line): 98.7%
IC50 (Becap37 cell line): 4.32 µg/mL (≈ 7.24 µM)
inhibition at 16 µg/mL (CNE cell line): 99.5%
IC50 (CNE cell line): 3.89 µg/mL (≈ 6.52 µM)
inhibition at 16 µg/mL (MGC 803 cell line): 99.2%
IC50 (MGC 803 cell line): 2.84 µg/mL (≈ 4.76 µM)
IC50 (MG-63 cell line): 2.72 µg/mL (≈ 4.56 µM)
inhibition at 16 µg/mL (MG-63 cell line): 98.2%
inhibition at 16 µg/mL (U87 MG cell line): 98.6%
IC50 (U87 MG cell line): 2.54 µg/mL (≈ 4.26 µM)
inhibition at 16 µg/mL (RKO cell line): 100%
IC50 (RKO cell line): 3.29 µg/mL (≈ 5.51 µM)
IC50 (SK-OV-3 cell line): 3.63 µg/mL (≈ 6.08 µM)
inhibition at 16 µg/mL (SK-OV-3 cell line): 97.9%

COC(=O)[C@]12CCC(C)(C)C[C@H]1C1=CC[C@@H]3[C@@]4(C)CC(C(=O)NCC5CC5)C(=O)C(C)(C)[C@@H]4CC[C@@]3(C)[C@]1(C)CC2 (some centres unmarked) [BS-OA-048]
inhibition at 16 µg/mL (NB4 cell line): 11%
IC50 (NB4 cell line): > 16 µg/mL
inhibition at 16 µg/mL (Kasumi-1 cell line): 0.2%
IC50 (Kasumi-1 cell line): > 16 µg/mL
IC50 (K562/adr cell line): > 16 µg/mL
inhibition at 16 µg/mL (K562/adr cell line): 21.4%
inhibition at 16 µg/mL (Jurkat cell line): -21.2%
IC50 (Jurkat cell line): > 16 µg/mL
IC50 (H9 cell line): > 16 µg/mL
inhibition at 16 µg/mL (H9 cell line): 28.9%
inhibition at 16 µg/mL (Hep G2 cell line): 7.4%
IC50 (Hep G2 cell line): > 16 µg/mL
inhibition at 16 µg/mL (RPMI8226 cell line): 4.9%
IC50 (RPMI8226 cell line): > 16 µg/mL
IC50 (Hep-2 cell line): > 16 µg/mL
inhibition at 16 µg/mL (Hep-2 cell line): -5.3%
IC50 (Hela cell line): > 16 µg/mL
inhibition at 16 µg/mL (Hela cell line): 2.4%
IC50 (PANC-1 cell line): > 16 µg/mL
inhibition at 16 µg/mL (PANC-1 cell line): -17.8%
inhibition at 16 µg/mL (CaES-17 cell line): -18.6%
IC50 (CaES-17 cell line): > 16 µg/mL
IC50 (PC-3 cell line): > 16 µg/mL
inhibition at 16 µg/mL (PC-3 cell line): 17.7%
IC50 (A549 cell line): > 16 µg/mL
inhibition at 16 µg/mL (A549 cell line): -3.8%
inhibition at 16 µg/mL (Becap37 cell line): -8.4%
IC50 (Becap37 cell line): > 16 µg/mL
inhibition at 16 µg/mL (CNE cell line): 21.9%
IC50 (CNE cell line): > 16 µg/mL
inhibition at 16 µg/mL (MGC 803 cell line): -5.9%
IC50 (MGC 803 cell line): > 16 µg/mL
IC50 (MG-63 cell line): > 16 µg/mL
inhibition at 16 µg/mL (MG-63 cell line): -20.3%
inhibition at 16 µg/mL (U87 MG cell line): 5.6%
IC50 (U87 MG cell line): > 16 µg/mL
inhibition at 16 µg/mL (RKO cell line): -33.4%
IC50 (RKO cell line): > 16 µg/mL
IC50 (SK-OV-3 cell line): > 16 µg/mL
inhibition at 16 µg/mL (SK-OV-3 cell line): 22%
